The record followed here is ChEMBL document CHEMBL3352741, “Discovery of VU0431316: a negative allosteric modulator of mGlu5 with activity in a mouse model of anxiety” (Bioorg Med Chem Lett, 2014).

Assay [1] has as its target Metabotropic glutamate receptor 5 (Rattus norvegicus, UniProt P31424). The assay can be described thus: Negative allosteric modulator activity at rat mGlu5 expressed in HEK293A cells assessed as reduction in glutamate-induced calcium mobilization. In kind it is functional, cell-based, HEK293-A. For orientation: A change in cytosolic calcium serves as a functional read-out for many receptors and channels.

Assay [2] deals with Metabotropic glutamate receptor 5 (Rattus norvegicus) (UniProt P31424). The assay can be described thus: Negative allosteric modulator activity at rat mGlu5 expressed in HEK293A cells assessed as reduction in 100 uM glutamate-induced calcium mobilization at 30 uM. It is filed as functional, cell-based. As to conditions: HEK293-A.
Sequence of Metabotropic glutamate receptor 5 (Rattus norvegicus) (P31424 21-1203 limits assumed): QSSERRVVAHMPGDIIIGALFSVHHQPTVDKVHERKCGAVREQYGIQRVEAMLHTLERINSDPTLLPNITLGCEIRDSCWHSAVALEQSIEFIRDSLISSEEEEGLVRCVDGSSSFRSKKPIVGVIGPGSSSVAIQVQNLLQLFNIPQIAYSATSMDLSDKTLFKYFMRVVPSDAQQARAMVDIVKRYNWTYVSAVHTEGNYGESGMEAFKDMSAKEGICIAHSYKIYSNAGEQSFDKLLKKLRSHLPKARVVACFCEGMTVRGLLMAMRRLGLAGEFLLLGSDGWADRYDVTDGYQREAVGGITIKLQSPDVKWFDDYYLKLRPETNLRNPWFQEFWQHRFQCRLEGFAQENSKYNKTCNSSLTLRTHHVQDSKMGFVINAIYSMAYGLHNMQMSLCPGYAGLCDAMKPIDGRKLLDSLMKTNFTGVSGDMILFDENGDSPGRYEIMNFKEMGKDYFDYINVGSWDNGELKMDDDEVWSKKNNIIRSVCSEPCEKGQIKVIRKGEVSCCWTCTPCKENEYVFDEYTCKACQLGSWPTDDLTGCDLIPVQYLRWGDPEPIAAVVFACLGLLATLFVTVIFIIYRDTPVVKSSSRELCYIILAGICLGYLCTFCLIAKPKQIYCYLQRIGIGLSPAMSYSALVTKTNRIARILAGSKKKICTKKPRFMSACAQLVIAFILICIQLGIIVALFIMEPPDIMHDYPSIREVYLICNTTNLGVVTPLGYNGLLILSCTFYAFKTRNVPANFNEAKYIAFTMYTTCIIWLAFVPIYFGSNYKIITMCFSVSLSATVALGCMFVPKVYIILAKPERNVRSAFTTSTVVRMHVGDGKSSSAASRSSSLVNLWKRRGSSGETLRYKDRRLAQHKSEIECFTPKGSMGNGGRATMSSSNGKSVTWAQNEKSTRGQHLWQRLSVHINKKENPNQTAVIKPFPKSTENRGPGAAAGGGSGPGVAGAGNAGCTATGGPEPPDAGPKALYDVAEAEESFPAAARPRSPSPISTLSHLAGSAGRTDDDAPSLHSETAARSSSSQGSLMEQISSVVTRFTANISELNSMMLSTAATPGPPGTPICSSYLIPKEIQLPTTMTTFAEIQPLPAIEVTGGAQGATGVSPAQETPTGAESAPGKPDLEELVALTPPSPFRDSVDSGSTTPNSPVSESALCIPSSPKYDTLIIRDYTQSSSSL

Sequence of Metabotropic glutamate receptor 5 (P31424 whole entry): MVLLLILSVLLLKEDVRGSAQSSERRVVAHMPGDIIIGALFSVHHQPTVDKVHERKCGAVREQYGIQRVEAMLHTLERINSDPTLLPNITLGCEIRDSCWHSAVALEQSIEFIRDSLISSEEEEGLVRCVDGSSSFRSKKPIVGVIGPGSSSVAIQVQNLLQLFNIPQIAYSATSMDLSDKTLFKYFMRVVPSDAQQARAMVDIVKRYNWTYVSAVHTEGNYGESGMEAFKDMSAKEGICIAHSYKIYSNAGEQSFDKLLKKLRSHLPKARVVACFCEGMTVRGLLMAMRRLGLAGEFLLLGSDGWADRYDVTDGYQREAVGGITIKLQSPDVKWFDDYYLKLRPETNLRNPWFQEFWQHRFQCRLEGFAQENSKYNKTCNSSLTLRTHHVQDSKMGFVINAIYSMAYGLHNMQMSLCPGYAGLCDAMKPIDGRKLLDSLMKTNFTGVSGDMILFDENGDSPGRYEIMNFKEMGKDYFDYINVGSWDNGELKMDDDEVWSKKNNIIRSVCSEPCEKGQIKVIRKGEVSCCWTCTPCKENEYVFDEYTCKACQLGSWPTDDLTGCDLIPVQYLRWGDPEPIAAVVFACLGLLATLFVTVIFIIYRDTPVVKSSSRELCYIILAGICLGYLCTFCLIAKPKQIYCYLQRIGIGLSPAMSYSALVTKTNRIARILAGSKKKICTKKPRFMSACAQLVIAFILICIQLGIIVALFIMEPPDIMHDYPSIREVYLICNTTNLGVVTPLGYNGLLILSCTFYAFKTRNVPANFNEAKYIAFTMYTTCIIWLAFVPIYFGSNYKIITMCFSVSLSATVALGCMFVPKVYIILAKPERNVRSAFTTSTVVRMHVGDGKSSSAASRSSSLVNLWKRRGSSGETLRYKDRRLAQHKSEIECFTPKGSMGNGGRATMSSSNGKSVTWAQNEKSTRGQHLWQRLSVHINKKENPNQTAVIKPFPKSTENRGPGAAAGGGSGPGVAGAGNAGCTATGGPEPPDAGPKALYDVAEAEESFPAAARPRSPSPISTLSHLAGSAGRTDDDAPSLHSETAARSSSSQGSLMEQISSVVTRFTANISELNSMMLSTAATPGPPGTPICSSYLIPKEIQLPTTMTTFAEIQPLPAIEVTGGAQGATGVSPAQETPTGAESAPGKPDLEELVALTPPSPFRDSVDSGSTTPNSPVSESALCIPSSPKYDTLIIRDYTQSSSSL

Broadly, the IC50 is the concentration that inhibits the measured activity by half. For `Cc1cccc(C(=O)Nc2cncc(Oc3cncc(F)c3)n2)n1`, in assay [1], the IC50 was more than 30 µM.

For the compound `O=C(Nc1cncc(Oc2cccnc2)n1)c1cccc(Cl)c1`, the IC50 in assay [1] turned out to be 0.129 µM.

As for `Cc1ccnc(C(=O)Nc2cncc(Oc3cncc(F)c3)n2)c1`, the IC50 in assay [1] amounted to 0.311 µM. Further, the %max in assay [2] worked out at 1.7%.

`Cc1nc(C(=O)Nc2cncc(Oc3cncc(F)c3)n2)cs1`: the %max in assay [2] is 19%.

For the compound `O=C(Nc1cncc(Oc2cncnc2)n1)c1ccsc1`, the IC50 in assay [1] is more than 10 µM. The %max in assay [2] worked out at 15%.

As to `Cc1cc(C(=O)Nc2cncc(Oc3cncc(F)c3)n2)cs1`, the IC50 in assay [1] was 0.99 µM. Further, in assay [2], the %max turned out to be 1.1%.

Take `O=C(Nc1cncc(Oc2cncc(F)c2)n1)c1ccc(F)c(Cl)c1`: the IC50 in assay [1] came to 4.59 µM. The %max in assay [2] is -2.8%.

For `O=C(Nc1cncc(Oc2cncc(F)c2)n1)c1cccs1`, in assay [1], the IC50 worked out at 6.37 µM. The %max in assay [2] was determined as 7.8%.

For the compound `Cc1ccc(C(=O)Nc2cncc(Oc3cncnc3)n2)s1`, the IC50 in assay [1] is more than 30 µM.

As for `O=C(Nc1cncc(Oc2cncc(F)c2)n1)c1cc(Cl)ccn1`, the IC50 in assay [1] amounted to 0.111 µM. Also, in assay [2], the %max was determined as 2%.

Turning to `O=C(Nc1cncc(Oc2cncc(F)c2)n1)c1cccc(Cl)n1`, the IC50 in assay [1] was more than 30 µM.

In the case of `O=C(Nc1cncc(Oc2cncc(F)c2)n1)c1cscn1`, in assay [1], the IC50 is 8.43 µM. In assay [2], the %max was 22%.

On to `O=C(Nc1cncc(Oc2cncc(F)c2)n1)c1cccnn1`, for which the IC50 in assay [1] is more than 30 µM.

For `O=C(Nc1cncc(Oc2cncnc2)n1)c1cccs1`, in assay [1], the IC50 was more than 10 µM. In addition, the %max in assay [2] came out at 20%.

Consider `O=C(Nc1cncc(Oc2cncc(F)c2)n1)c1nccs1`, for which the IC50 in assay [1] was more than 10 µM. Moreover, the %max in assay [2] amounted to 40%.

As for `O=C(Nc1cncc(Oc2cncc(F)c2)n1)c1cncs1`, in assay [1], the IC50 was more than 30 µM.

As to `COc1cccc(C(=O)Nc2cncc(Oc3cncnc3)n2)c1`, in assay [2], the %max was -4.3%.

In the case of `O=C(Nc1cncc(Oc2cncc(F)c2)n1)c1cccnc1`, the IC50 in assay [1] is more than 30 µM.

Take `Cc1ccnc(C(=O)Nc2cncc(Oc3cncnc3)n2)c1`: the half-inhibitory concentration (IC50) in assay [1] came to 0.193 µM. The %max in assay [2] is 2.1%.

Take `O=C(Nc1cncc(Oc2cncc(F)c2)n1)c1ccccn1`: the IC50 in assay [1] is more than 10 µM. Moreover, the %max in assay [2] was found to be 40%.

With `O=C(Nc1cncc(Oc2cncc(F)c2)n1)c1ccncn1`, the IC50 in assay [1] was more than 30 µM.

On to `O=C(Nc1cncc(Oc2cncnc2)n1)c1ccccc1`, for which the IC50 in assay [1] is more than 10 µM. Further, the %max in assay [2] was determined as 12%.

As to `O=C(Nc1cncc(Oc2cncnc2)n1)c1cscn1`, the IC50 in assay [1] was more than 10 µM. For the same compound, in assay [2], the %max worked out at 35%.

`O=C(Nc1cncc(Oc2cncc(F)c2)n1)c1ccccc1`: in assay [2], the %max is -9.4%.

With `O=C(Nc1cncc(Oc2cncc(F)c2)n1)c1cc(F)cc(F)c1`, the IC50 in assay [1] was more than 30 µM.

Take `Cc1cccc(C(=O)Nc2cncc(Oc3cncc(F)c3)n2)c1`: in assay [1], the IC50 stood at 0.199 µM. In assay [2], the %max was found to be 2.1%.

Regarding `O=C(Nc1cncc(Oc2cncc(F)c2)n1)c1cccc(F)c1`, in assay [1], the 50% inhibitory concentration (IC50) was found to be 3.82 µM. Moreover, in assay [2], the %max was -0.4%.

For `N#Cc1cc(F)cc(C(=O)Nc2cncc(Oc3cncc(F)c3)n2)c1`, in assay [1], the IC50 is more than 30 µM.

Turning to `O=C(Nc1cncc(Oc2cncnc2)n1)c1cccc(F)c1`, the IC50 in assay [1] is 5.14 µM. The %max in assay [2] came to 1.5%.

Consider `Cc1cc(C)cc(C(=O)Nc2cncc(Oc3cncc(F)c3)n2)c1`, for which the %max in assay [2] amounted to 6.6%.

For the compound `O=C(Nc1ccnc(Oc2cccnc2)c1)c1cccc(Cl)c1`, the IC50 in assay [1] worked out at 3.7 µM.

Take `O=C(Nc1cncc(Oc2cncc(F)c2)n1)c1cc(Cl)cc(Cl)c1`: the IC50 in assay [1] was more than 30 µM.

Turning to `O=C(Nc1cncc(Oc2cncnc2)n1)c1cc(Br)ccn1`, the IC50 in assay [1] stood at 0.1 µM. For the same compound, the %max in assay [2] worked out at 2.3%.

In the case of `O=C(Nc1cncc(Oc2cncc(F)c2)n1)c1ccsc1`, in assay [2], the %max was determined as 0.1%.

Take `O=C(Nc1cncc(Oc2cncc(F)c2)n1)c1cccc(Cl)c1F`: the IC50 in assay [1] was more than 30 µM.

`O=C(Nc1cncc(Oc2cncc(F)c2)n1)c1cc(Cl)ccc1F`: the IC50 in assay [1] was 0.894 µM. Moreover, the %max in assay [2] amounted to 1%.

On to `COc1cccc(C(=O)Nc2cncc(Oc3cncc(F)c3)n2)c1`, for which the %max in assay [2] is -5.6%.

Consider `COc1cc(OC)cc(C(=O)Nc2cncc(Oc3cncc(F)c3)n2)c1`, for which the IC50 in assay [1] is more than 30 µM.

Consider `O=C(Nc1cncc(Oc2cncc(F)c2)n1)c1cccc(Cl)c1`, for which, in assay [1], the IC50 worked out at 0.118 µM. Moreover, the %max in assay [2] is 2%.

For `O=C(Nc1cncc(Oc2cncc(F)c2)n1)c1cc(F)cc(Cl)c1`, the IC50 in assay [1] is more than 10 µM. Also, the %max in assay [2] amounted to 48%.

`Cc1csc(C(=O)Nc2cncc(Oc3cncc(F)c3)n2)n1`: the IC50 in assay [1] was more than 10 µM. Besides, the %max in assay [2] amounted to 20%.

Regarding `N#Cc1cccc(C(=O)Nc2cncc(Oc3cncc(F)c3)n2)c1`, the IC50 in assay [1] is 0.662 µM. Moreover, the %max in assay [2] was determined as 1.2%.

Consider `CN(C)c1cccc(C(=O)Nc2cncc(Oc3cncc(F)c3)n2)c1`, for which the IC50 in assay [1] is more than 10 µM. For the same compound, the %max in assay [2] turned out to be 52%.
